Columns and labels:
[1] = compared to a known RXR full agonist; cited from earlier work
emphysema model mice = experiment: Emphysema model mice (intratracheal swine pancreatic elastase), evaluation of drug efficacy; format: in vivo, female BALB/c mice
Protocol: <Preparation of Emphysema Mice and Evaluation of Drug Efficacy>
Emphysema mice were prepared in accordance with the following procedures described and used for evaluation of drug efficacy.
Under anesthesia by pentobarbital or isoflurane administration, female BALB/c mice were intratracheally administered with swine pancreatic elastase to prepare (day 0) emphysema models.
Control mice were fed with a food containing bexarotene as an existing RXR full agonist.
On Days 4 and 14, the mice underwent tracheotomy again under anesthesia by pentobarbital or xylazine-ketamine administration, followed by insertion of an endotracheal tube, and static lung compliance was measured using a respiratory function measuring equipment ([…], SIREQ Inc.) for evaluating emphysematous alteration. Static lung compliance is an indication of extensibility of a lung tissue, and static lung compliance is increased in emphysema which is a disease associated with tissue destruction in an alveolar region.
After the procedure 3, the mice were euthanized by exsanguination. After bronchoalveolar lavage, a lung tissue was removed for evaluating emphysema.
The data obtained was analyzed by Anova significance test, in which p<0.05 to an untreated non-emphysema group was indicated by “*”. Furthermore, P<0.05 to an untreated emphysema group was indicated by “#”.

[2] = system: bronchial asthma model mice; experiment: Bronchial asthma model mice (OVA sensitization and inhaled OVA exposure), evaluation of drug efficacy; format: in vivo, female BALB/c mice; details: compared with the untreated group
Protocol: <Preparation of Bronchial Asthma Mice and Evaluation of Drug Efficacy>
Bronchial asthma mice were prepared and used for evaluation of drug efficacy in accordance with the following procedures.
Female BALB/c mice were systemically sensitized by intraperitoneal administration of ovalbumin (OVA) ([…] of OVA emulsified in 2.25 mg aluminum hydroxide in a total volume of 100 μL) on Day 0 and Day 14, and then was exposed to inhaled OVA by an ultrasonic nebulizer (for 20 min, 3 days: Days 28 to 30), to induce asthma reaction.
From Day 25, the mice were fed with a food containing an RXR agonist (NEt-4IB). On Day 32, the mice underwent tracheotomy under anesthesia by pentobarbital administration, followed by insertion of an endotracheal tube. After the tube was connected to a respiratory function measuring equipment, an airway hyperreactivity (airway resistance) was determined for evaluating airway constriction.
Forty eight hours after the last OVA inhalation exposure, airway hyperreactivity in the mice with an endotracheal tube was measured using a respiratory function measuring equipment (Flexivent, SIREQ Inc.). Here, airway hyperreactivity was induced by inhalation of methacholine.
After the procedure 2, the mice were euthanized by exsanguination. After bronchoalveolar lavage, a lung tissue was removed for evaluating an airway tissue.
Also, for a group fed with a common food as an untreated group, an asthma reaction was induced in the same way for determination of airway hyperreactivity and evaluation of airway inflammation.
Two groups which were not sensitized by an OVA and only exposed to inhaled OVA as non-asthma control groups (an RXR agonist medicated feed group and a common feed group) were also evaluated for airway hyperreactivity and airway inflammation in the same way.
The data obtained was analyzed by Anova significance test, in which p<0.01 and p<0.05 to an untreated non-asthma group were indicated by “**” and “*”, respectively. Furthermore, P<0.05 to an untreated asthma group was indicated by “#”.

[3] = emphysema model mice, 4 days after elastase administration, compared with drug non-administration group

CCN(c1ccc(C(C)C)c(OCC(C)C)c1)c1ccc(C(=O)O)cn1 [NEt-3IB]
increase in triglyceride [1]: reduces increase in triglyceride

CCN(c1ccc(OCC(C)C)c(C(C)C)c1)c1ccc(C(=O)O)cn1 [NEt-4IB]
static lung compliance (emphysema model mice; emphysema model mice fed food containing compound from Day -4, measured Days 4 and 14, compared with the untreated group): significant improvement
macrophages in cell fraction of bronchoalveolar lavage fluid (emphysema model mice; [3]): significantly reduced
total cell number in cell fraction of bronchoalveolar lavage fluid (emphysema model mice; [3]): significantly reduced
neutrophil number in cell fraction of bronchoalveolar lavage fluid (emphysema model mice; emphysema model mice, 4 days after elastase administration, compared with the untreated group): reduction
effect on bronchoalveolar lavage cell numbers compared with the RXR full agonist bexarotene (emphysema model mice; emphysema model mice, 4 days after elastase administration, total cell number and macrophages): remarkably higher
average interalveolar distance in lung tissue (emphysematous alteration) (emphysema model mice; emphysema model mice, formalin-fixed, HE-stained lung tissue, compared with the untreated group): improvement in emphysematous alteration
anti-inflammatory effect (emphysema model mice; emphysema model or bronchial asthma model, repeated oral administration (summary statement)): significant anti-inflammatory effect
IL-5 in supernatant of bronchoalveolar lavage fluid ([2]; ELISA): inhibition
IL-13 in supernatant of bronchoalveolar lavage fluid ([2]; ELISA): inhibition
inflammatory cell infiltration in a local site of the airway, histopathological investigation of the lung tissue ([2]; HE staining): improvement in inflammatory cell infiltration
eosinophil number in cell fraction of bronchoalveolar lavage fluid [2]: reduction
lymphocyte number in cell fraction of bronchoalveolar lavage fluid [2]: reduction
total cell number in cell fraction of bronchoalveolar lavage fluid [2]: reduction
